Experimental data taken from patent publication US20020086814A1 (priority 2000, published 2002).

How the values were obtained:
Vero cells [1] = format: cell-based
Vero cells [2] = format: cell-based; remark: listed apart in the source

chlorin e6 [free Ce6]
Cell-associated Ce6-specific fluorescence (Vero cells [1]): no detectable Ce6-specific fluorescence | LD50 of photodynamic cell killing, expressed in molar concentration of Ce6 (Vero cells [2]): 1.2 nmol/mL
